The subject of experiment [1] is Helicobacter pylori SS1 strain, TN2GF4 strain, TK1029 strain, RC-1 strain. Nature of the experiment: Proliferation inhibitory effect (in vitro) of low concentration fatty acid, shaking culture 24 hr, colony count. It counts as cell-based. The conditions noted are these: fatty acid 20 μM, 24 hr; SS1, TN2GF4, TK1029, RC-1 strains; compared with linoleic acid. The protocol:
Helicobacter pylori SS1 strain, TN2GF4 strain, TK1029 strain, RC-1 strain were each inoculated to a 6-well plate containing 2 mL of a liquid medium (BHI added with 5% FCS), and fatty acid (20 μM) and menaquinone (MK-4) 100 μg/mL were added. After shaking culture for 24 hr at temperature 37° C., microaerobic conditions (5% 02, 10% CO2, 85% N2), the culture medium was applied on a Helicobacter agar plate, cultured for 3 days and the resulting colonies were counted (FIG. 2-1 A: SS1 strain, FIG. 2-2 B: TN2GF4 strain, FIG. 2-3 C: TK1029 strain, FIG. 2-4 D: RC-1 strain. Item 1: control (menaquinone no addition), Item 2: control (menaquinone 100 μg/mL addition), Item 3: HYA 20 μM (menaquinone no addition), Item 4: HYA 20 μM (menaquinone 100 μg/mL addition), Item 5: linoleic acid 20 μM (menaquinone no addition), Item 6: linoleic acid 20 μM (menaquinone 100 μg/mL addition). *, P<0.0001 vs. Control (ordinary one-way ANOVA)).

Experiment [2] has as its system Helicobacter pylori SS1 strain or TN2GF4 strain. Kind of experiment: Proliferation inhibitory effect (in vivo) of HYA on Helicobacter pylori, number of bacteria in gastric mucosa. The arrangement: species or system C57BL/6 female mouse. The conditions noted are these: 200 μM in water from 1 week before infection; 2 weeks from final infection. The protocol: A 5-week-old C57BL/6 female mouse was orally infected 3 times with Helicobacter pylori SS1 strain or TN2GF4 strain (1-5×10^8 CFU) every other day and dissected at 2 weeks from the final infection day, and the number of bacteria in the gastric mucosa was counted. Water added with HYA or linoleic acid (200 μM) was given to the mice from 1 week before infection (FIG. 4-1 A: SS1 strain, FIG. 4-2 B: TN2GF4 strain). A 5-week-old C57BL/6 female mouse was orally infected only once with a stomach suspension of Helicobacter suis TKY strain or SNTW101 strain-infected mouse and dissected 2 weeks later, and the number of bacteria in the gastric mucosa was counted. Water added with HYA (200 μM) was given to the mouse from one week before the infection (FIG. 4-3 C). […] The measurement of the number of Helicobacter suis bacteria in the stomach of the infected mouse was performed as follows.

For a further experiment, the system named is Ki-67 positive cells. Kind of experiment: Gastric MALT lymphoma model: Ki-67 positive cells in lymphoid follicle (immunostaining). Format: in vivo, C57BL/6 female mouse. The conditions noted are these: 200 μM in water; 6 months after infection with Helicobacter suis TKY strain. The protocol: (§1) Helicobacter suis is suspected to be the cause of the onset of gastric MALT lymphoma. A 5-week-old C57BL/6 female mouse was orally infected only once with a stomach suspension of Helicobacter suis TKY strain-infected mouse and dissected 6 months after the infection, and the number of bacteria in the gastric mucosa was counted according to the method described in Example 5. Water added with HYA (200 μM) was given to the mouse from one week before the infection.
Ki-67 is known as a marker for cell proliferation and cell cycle. Proliferated cells in a tumor tissue were detected by immunostaining with anti-Ki-67 antibody. A part of the stomach was fixed with 10% neutral formalin buffer to prepare a paraffin block, serial sections were cut out using a microtome and Hematoxylin Eosin (HE) staining was performed. Ki-67 (Clone SP6) rabbit monoclonal antibody (Thermo Fisher Scientific Inc.) diluted 1:300 was used as a dilution antibody, Histofine Simple Stain mouse MAX-PO® (NICHIREI BIOSCIENCES INC., Code: 414341) DAB staining (DAKO Inc.) was used as a secondary antibody, and Hematoxylin was used for comparison staining. As the negative control, rabbit IgG antibody (Code No. X 0936 Lot 050 (DAKO Inc.)) was used. […]

The test system of the next experiment is CD19 and CD20 expression. Nature of the experiment: Gastric MALT lymphoma model: CD19, CD20 expression in gastric mucosa (real-time RT-PCR). It counts as in vivo, C57BL/6 female mouse. The conditions noted are these: 200 μM in water; 6 months after infection with Helicobacter suis TKY strain; relative to GAPDH. The protocol:
as §1
CD19 and CD20 are cell surface markers for B-cell lymphoma. Using real-time reverse transcription PCR (real-time RT-PCR), the expression levels of CD19 and CD20 were measured. Using NucleoSpin (registered trade mark) RNA Kit (Takara Bio Inc.), RNA was prepared from mouse gastric mucosa. Using PrimeScript™ RT Reagent Kit (Takara Bio Inc.), cDNA was prepared from RNA. For real-time RT-PCR, KAPA SYBR Fast ROX Low qPCR kit (KAPA BIOSYSTEMS Inc.) and QuantStudio7 Flex Real-time PCR System (Thermo Fisher Scientific Inc.) were used.
The conditions of 2-step real-time RT-PCR were as follows.
The expression level of CD19 or CD20 relative to that of glyceraldehyde-3-phosphate dehydrogenase (GAPDH) was converted to a numerical value and the value was further adjusted to make the average expression of CD19 or CD20 of the non-infection group 1. […]

Experiment [3] deals with Campylobacter jejuni ATCC33560 strain. Nature of the experiment: Proliferation inhibitory effect (in vitro) on Campylobacter jejuni, absorbance and colony count. It counts as cell-based. The conditions noted are these: 100, 200, 400 μM, 24 hr; concentration dependent; strong compared to linoleic acid.
Experiment [4] has as its system Campylobacter coli ATCC33559 strain. Kind of experiment: Proliferation inhibitory effect (in vitro) on Campylobacter coli, absorbance and colony count. It counts as cell-based. The note with it: 100, 200, 400 μM, 24 hr; concentration dependent; strong compared to linoleic acid.

Each structure is given as a SMILES string.

As for `CCCCC/C=C\CC(O)CCCCCCCCC(=O)O` (stereo not drawn) [HYA, 10-hydroxy-cis-12-octadecenoic acid], the “proliferation of Helicobacter pylori (colony count)” value in experiment [1] is on record as “suppressed proliferation”. Moreover, in experiment [2], the “proliferation of Helicobacter pylori SS1 strain, TN2GF4 strain (number of bacteria in gastric mucosa)” value is given as “inhibited proliferation”. Besides, the “increase in the number of Ki-67 positive cells, compared to the non-administration group” value with Ki-67 positive cells is reported as “significantly suppressed”. For the same molecule, in the experiment on CD19 and CD20 expression, the “CD19 relative expression level, compared to the non-administration group” value was “significantly suppressed” and the “CD20 relative expression level, compared to the non-administration group” value was “significantly suppressed”. In addition, in experiment [3], the “proliferation of Campylobacter jejuni ATCC33560 strain” value is given as “inhibited proliferation”. In addition, in experiment [4], the “proliferation of Campylobacter coli ATCC33559 strain” value was “inhibited proliferation”.

(Values after patent US12357601B2, “Composition for inhibiting growth of bacterium having menaquinone synthesis pathway through futalosine or futalosine derivative” (NOSTER INC., priority 2017, dated 2025).)
